# Source: patent publication US20100137305A1, “AMINOPYRIMIDINES USEFUL AS KINASE INHIBITORS” (VERTEX PHARMACEUTICALS INCORPORATED, priority 2008, published 2010)
# Like-named read-outs stand apart in the source and are kept apart here.
# Legend:
# Aurora-1 (Aurora B) = Aurora-1 (Aurora B) (Homo sapiens, UniProt Q96GD4); assay: Aurora-1 (Aurora B) Inhibition Assay (radiometric); type: biochemical; conditions: 800 μM ATP; read-out: Aurora B kinase activity Ki
# Description: An assay buffer solution was prepared which consisted of 25 mM HEPES (pH 7.5), 10 mM MgCl2, 0.1% BSA and 10% glycerol. A 22 nM Aurora-B solution, also containing 1.7 mM DTT and 1.5 mM Kemptide (LRRASLG), was prepared in assay buffer. To 22 μL of the Aurora-B solution, in a 96-well plate, was added 2 μl of a compound stock solution in DMSO and the mixture allowed to equilibrate for 10 minutes at 25° C. The enzyme reaction was initiated by the addition of 16 μl stock [γ-^33P]-ATP Pi-ATP solution (˜20 nCi/μL) prepared in assay buffer, to a final assay concentration of 800 μM. The reaction was stopped after 3 hours by the addition of 16 μL 500 mM phosphoric acid and the levels of ^33P incorporation into the peptide substrate were determined by the following method.
# A phosphocellulose 96-well plate (Millipore, Cat no. MAPHNOB50) was pre-treated with 100 μL of a 100 mM phosphoric acid prior to the addition of the enzyme reaction mixture (40 μL). The solution was left to soak on to the phosphocellulose membrane for 30 minutes and the plate subsequently washed four times with 200 μL of a 100 mM phosphoric acid. To each well of the dry plate was added 30 μL of Optiphase ‘SuperMix’ liquid scintillation cocktail (Perkin Elmer) prior to scintillation counting (1450 Microbeta Liquid Scintillation Counter, Wallac). Levels of non-enzyme catalyzed background radioactivity were determined by adding 16 μL of the 500 mM phosphoric acid to control wells, containing all assay components (which acts to denature the enzyme), prior to the addition of the [γ-^33P]-ATP solution. Levels of enzyme catalyzed ^33P incorporation were calculated by subtracting mean background counts from those measured at each inhibitor concentration. For each Ki determination 8 data points, typically covering the concentration range 0-10 μM compound, were obtained in duplicate (DMSO stocks were prepared from an initial compound stock of 10 mM with subsequent 1:2.5 serial dilutions). Ki values were calculated from initial rate data by non-linear regression using the Prism software package (Prism 3.0, Graphpad Software, San Diego, Calif.).
# Aurora-2 (Aurora A) = target: T1, Aurora-2 (Aurora A) (Homo sapiens, UniProt O14965); assay: Aurora-2 (Aurora A) Inhibition Assay, coupled enzyme assay; type: biochemical; conditions: 400 μM ATP, 30° C.; read-out: Aurora A kinase activity Ki
# T1 sequence (O14965 1-403): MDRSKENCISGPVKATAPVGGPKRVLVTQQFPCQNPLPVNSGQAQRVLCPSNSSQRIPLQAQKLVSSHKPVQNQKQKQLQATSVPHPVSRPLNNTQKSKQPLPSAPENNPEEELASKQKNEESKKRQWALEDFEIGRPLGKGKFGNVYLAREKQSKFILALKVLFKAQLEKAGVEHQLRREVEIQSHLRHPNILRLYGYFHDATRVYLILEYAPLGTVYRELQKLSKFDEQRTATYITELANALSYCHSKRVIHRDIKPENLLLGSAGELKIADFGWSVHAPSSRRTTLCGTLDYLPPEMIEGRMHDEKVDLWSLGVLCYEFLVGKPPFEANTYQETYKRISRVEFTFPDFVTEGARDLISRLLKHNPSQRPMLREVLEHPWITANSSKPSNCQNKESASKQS
# Description: Compounds were screened for their ability to inhibit Aurora-2 using a standard coupled enzyme assay (Fox et al., Protein Sci., (1998) 7, 2249). Assays were carried out in a mixture of 100 mM Hepes (pH7.5), 10 mM MgCl2, 1 mM DTT, 25 mM NaCl, 2.5 mM phosphoenolpyruvate, 300 μM NADH, 30 μg/ml pyruvate kinase and 10 μg/ml lactate dehydrogenase. Final substrate concentrations in the assay were 400 μM ATP (Sigma Chemicals) and 570 μM peptide (Kemptide, American Peptide, Sunnyvale, Calif.). Assays were carried out at 30° C. and in the presence of 40 nM Aurora-2.
# An assay stock buffer solution was prepared containing all of the reagents listed above, with the exception of Aurora-2 and the test compound of interest. 55 μl of the stock solution was placed in a 96 well plate followed by addition of 2 μl of DMSO stock containing serial dilutions of the test compound (typically starting from a final concentration of 7.5 μM). The plate was preincubated for 10 minutes at 30° C. and the reaction initiated by addition of 10 μl of Aurora-2. Initial reaction rates were determined with a Molecular Devices SpectraMax Plus plate reader over a 10 minute time course. IC50 and Ki data were calculated from non-linear regression analysis using the Prism software package (GraphPad Prism version 3.0cx for Macintosh, GraphPad Software, San Diego Calif., USA).
# Colo205 cells = assay: Analysis of Cell Proliferation, 3H thymidine incorporation; type: cell-based; conditions: Homo sapiens
# Description: Compounds were screened for their ability to inhibit cell proliferation using Colo205 cells obtained from ECACC and using the assay shown below.
# Colo205 cells were seeded in 96 well plates and serially diluted compound was added to the wells in duplicate. Control groups included untreated cells, the compound diluent (0.1% DMSO alone) and culture medium without cells. The cells were then incubated for 72 or 96 hrs at 37C in an atmosphere of 5% CO2/95% humidity.
# To measure proliferation, 3 h prior to the end of the experiment 0.5 μCi of 3H thymidine was added to each well. Cells were then harvested and the incorporated radioactivity counted on a Wallac microplate beta-counter. Dose response curves were calculated using either Prism 3.0 (GraphPad) or SoftMax Pro 4.3.1 LS (Molecular Devices) software.
# [1] = COLO 205, 96 h, 96 hours, read-out: IC50 cell proliferation after 96 hours
# [2] = COLO 205, 72 h, 72 hours, read-out: IC50 cell proliferation after 72 hours
# Sequence of Aurora-1 (Aurora B) (Q96GD4 whole entry): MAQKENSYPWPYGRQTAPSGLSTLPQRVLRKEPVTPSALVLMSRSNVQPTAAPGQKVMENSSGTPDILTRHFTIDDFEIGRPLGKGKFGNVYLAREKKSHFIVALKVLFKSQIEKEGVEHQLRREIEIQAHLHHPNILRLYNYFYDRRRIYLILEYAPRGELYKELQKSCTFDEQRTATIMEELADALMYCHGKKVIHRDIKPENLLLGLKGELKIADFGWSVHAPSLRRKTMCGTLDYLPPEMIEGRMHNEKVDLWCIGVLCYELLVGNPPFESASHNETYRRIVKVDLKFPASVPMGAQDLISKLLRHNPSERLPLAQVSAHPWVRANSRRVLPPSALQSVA
Compound,Ki (Aurora-1 (Aurora B)) [nM],Ki (Aurora-2 (Aurora A)) [nM],IC50 (Colo205 cells; [1]) [nM],IC50 (Colo205 cells; [2]) [nM]
Cc1cc(Nc2cc(N3CCC4(CCN(C)C4)CC3)nc(Sc3ccc(NC(=O)C4CC4)c(F)c3)n2)[nH]n1 [Compound I-32],≤ 10,≤ 10,50 to 200,
CCC(=O)Nc1ccc(Sc2nc(Nc3cc(C)n[nH]3)cc(N3CCC(N4CCCC4(C)C)CC3)n2)cc1 [Compound I-33],10 to 50,≤ 10,50 to 200,
Cc1cc(Nc2cc(N3CCC(F)C3)nc(Sc3ccc(NC(=O)c4ccccc4Cl)cc3)n2)[nH]n1 (centres unmarked) [Compound I-35],≤ 10,≤ 10,50 to 200,
CCC(=O)Nc1ccc(Sc2nc(Nc3cc(C)n[nH]3)cc(N3CCC(N4CCOCC4)CC3)n2)cc1 [Compound I-40],10 to 50,≤ 10,≤ 50,
CCC(=O)Nc1ccc(Sc2nc(Nc3cc(C)n[nH]3)cc(N3CCC(N4CCC(F)C4)CC3)n2)cc1 (centres unmarked) [Compound I-43],10 to 50,≤ 10,≤ 50,
CCC(=O)Nc1ccc(Sc2nc(Nc3cc(C)n[nH]3)cc(N3CCC(O)(CC)CC3)n2)cc1 [Compound I-44],10 to 50,≤ 10,≤ 50,
CCC(=O)Nc1ccc(Sc2nc(Nc3cc(C)n[nH]3)cc(N3CCC(C(C)(C)OC)CC3)n2)cc1 [Compound I-45],10 to 50,≤ 10,≤ 50,
CCC(=O)Nc1ccc(Sc2nc(Nc3cc(C)n[nH]3)cc(N3CCC(N(C)C(C)(C)C)CC3)n2)cc1 [Compound I-47],10 to 50,≤ 10,≤ 50,
CCC(=O)Nc1ccc(Sc2nc(Nc3ncc(C)s3)cc(N3CCC(N4CCCC4)CC3)n2)cc1 [Compound I-49],10 to 50,≤ 10,≤ 50,
CN1CCC2(CCN(c3cc(Nc4cc(C5CC5)n[nH]4)nc(Sc4ccc(NC(=O)C5CC5)cc4)n3)CC2)C1 [Compound I-51],10 to 50,≤ 10,≤ 50,
Cc1cc(Nc2cc(N3CCC4(CCN(C)C4)CC3)nc(Sc3ccc(NC(=O)C4CC4)cc3F)n2)[nH]n1 [Compound I-54],10 to 50,≤ 10,≤ 50,
CCC(=O)Nc1ccc(Sc2nc(Nc3cc(C4CC4)n[nH]3)cc(N3CCC(N4CCCC4)CC3)n2)cc1 [Compound I-56],10 to 50,≤ 10,≤ 50,≤ 25
CCC(=O)Nc1ccc(Sc2nc(Nc3cc(C)n[nH]3)cc(N3CCC(O)(C(C)C)CC3)n2)cc1 [Compound I-58],10 to 50,≤ 10,≤ 50,
Cc1cnc(Nc2cc(N3CC4CCCNC4C3)nc(Sc3ccc(NC(=O)C4CC4)cc3)n2)s1 (centres unmarked) [Compound I-59],10 to 50,≤ 10,≤ 50,≤ 25
CCC(=O)Nc1ccc(Sc2nc(Nc3cc(C4CC4)n[nH]3)cc(N3CC[C@H](N4CCCC4)C3)n2)cc1 [Compound I-62],10 to 50,≤ 10,≤ 50,
Cc1cc(Nc2cc(N3CCC(N4CCN(C)CC4)CC3)nc(Sc3ccc(NC(=O)C4(C(F)(F)F)CC4)cc3)n2)[nH]n1 [Compound I-64],10 to 50,≤ 10,,≤ 25
Cc1cnc(Nc2cc(N3CCC(N4CCN(C)CC4)CC3)nc(Sc3ccc(NC(=O)CC(F)(F)F)cc3)n2)s1 [Compound I-66],10 to 50,≤ 10,,≤ 25
Cc1cc(Nc2cc(N3CCC(N4CCOCC4)CC3)nc(Sc3ccc(NC(=O)C4(C(F)(F)F)CC4)cc3)n2)[nH]n1 [Compound I-67],≤ 10,≤ 10,,≤ 25
Cc1cc(Nc2cc(N3CC[C@H](N(C)C)C3)nc(Sc3ccc(NC(=O)c4ccccc4C(F)(F)F)cc3)n2)[nH]n1 [Compound I-70],≤ 10,≤ 10,,≤ 25
Cc1cc(Nc2cc(N3CCC(N4CCN(C)CC4)CC3)nc(Sc3ccc(NC(=O)CC(F)(F)F)cc3)n2)[nH]n1 [Compound I-73],10 to 50,≤ 10,,≤ 25
Cc1cc(Nc2cc(N3CC[C@@H](F)C3)nc(Sc3ccc(NC(=O)c4ccccc4C(F)(F)F)cc3)n2)[nH]n1 [Compound I-74],≤ 10,≤ 10,,≤ 25
Cc1cc(Nc2cc(N3CCC(N4CCOCC4)CC3)nc(Sc3ccc(NC(=O)C4CC4(F)F)cc3)n2)[nH]n1 (centres unmarked) [Compound I-75],10 to 50,≤ 10,,25 to 125
Cc1cc(Nc2cc(N3CCC(F)C3)nc(Sc3ccc(NC(=O)c4ccccc4C(F)(F)F)cc3)n2)[nH]n1 (centres unmarked) [Compound I-76],≤ 10,≤ 10,,25 to 125
Cc1cc(Nc2cc(N3CCC(N4CCCC4)CC3)nc(Sc3ccc(NC(=O)CC4CCCC4)cc3)n2)n[nH]1 [Compound I-77],10 to 50,≤ 10,,25 to 125
Cc1cc(Nc2cc(N3CCC4(CC3)OCCO4)nc(Sc3ccc(NC(=O)CC(F)(F)F)cc3)n2)[nH]n1 [Compound I-79],≤ 10,≤ 10,,25 to 125
Cc1cc(Nc2cc(N3CCC(F)(F)CC3)nc(Sc3ccc(NC(=O)CC(F)(F)F)cc3)n2)[nH]n1 [Compound I-84],10 to 50,≤ 10,,25 to 125
